Data published in patent US20170254801A1, “METHOD FOR IDENTIFYING SUBSTANCES WHICH PRIME A DEFENSE RESPONSE” (RHEINISCH-WESTFÄLISCHE TECHNISCHE HOCHSCHULE AACHEN (RWTH), priority 2014, published 2017).

What was measured:
[1] = test system: Petroselinum crispum cells; assay: Oxygen transfer rate (RAMOS) in suspension cells treated with substance and then with the elicitor Pep13; type: cell-based; settings: 200 μM 72 hours after inoculation; for oxygen transfer rate in comparison to untreated cells and to cells only treated with Pep13 (specificity): 1 nM Pep13 96 hours after inoculation, FIG. 2
Protocol: (§1) 12.5 ml of a suspension of Petroselinum crispurn cells were inoculated in 250 ml shaking flasks containing 37.5 ml of modified Gamborg B5 medium and cultured at a temperature of 25° C. at a shaking frequency of 180 U/min and a shaking diameter of 5 cm in a RAMOS device (HiTec Zang, Herzogenrath). During the culture the oxygen partial pressure of the gas phase in the head space of the flask was measured and the oxygen transfer rate was calculated therefrom.
In yet another experiment, the cells were treated with 200 μM salicylic acid 72 hours after inoculation and with Pep13 96 hours after inoculation.
In parallel experiments, the cells were either treated with 200 μM salicylic acid, 200 μM 4-chlorsalicylic acid or with 200 μM 3-hydroxy benzoic acid 72 hours after inoculation and then in all experiments 1 nM Pep13 was added 96 hours after inoculation.

[2] = test system: Petroselinum crispum cells; assay: Oxygen transfer rate (RAMOS) in suspension cells after treatment with a defense priming substance or elicitor alone; type: cell-based; settings: 200 μM added 72 hours after inoculation; FIG. 1b
From the text: In the determination of the respiration activity with RAMOS, a measuring cycle is continuously repeated during fermentation. This measuring cycle comprises a measuring phase and a rinsing phase. During the rinsing phase, air is flushed through the measuring flask at a specific flow rate. At the beginning of the measuring phase, inlet and outlet valves of the measuring flask are closed. Respiration of the cells leads to a decrease in the oxygen partial pressure and to an increase in the carbon dioxide partial pressure in the gas headspace of the measuring flask. These partial pressures are monitored by an oxygen sensor and a differential pressure sensor. In addition, a carbon dioxide sensor may be used. Assuming linear changes in the measuring phase, a computer calculates the oxygen transfer rate and the carbon dioxide transfer rate according to the formulas provided above. […]
as §1, with “therefrom. […]” for “therefrom.”

## O=C(O)c1cccc(O)c1 [3-hydroxy benzoic acid]
[1]
  oxygen transfer rate in comparison to untreated cells and to cells only treated with Pep13 (specificity): same increase in the oxygen transfer rate as the addition of Pep13 alone

## O=C(O)c1ccc(Cl)cc1O [4-chlorsalicylic acid]
[1]
  oxygen transfer rate in comparison to untreated cells and to cells only treated with Pep13 (specificity): increase in the oxygen transfer rate

## O=C(O)c1ccccc1O [salicylic acid]
[2]
  duration of the increase in oxygen transfer rate: about 48 hours
  oxygen transfer rate in comparison to the untreated cells: increase in the oxygen transfer rate
[1]
  oxygen transfer rate in comparison to untreated cells and to cells only treated with Pep13 (specificity): increase in the oxygen transfer rate
[1]; Pep13 96 hours after inoculation, FIG. 1d
  oxygen transfer rate compared with treatment with Pep13 alone: stronger increase in the oxygen transfer rate than the treatment with Pep13 alone
